# Reference: patent US20220023306A1, “USE OF A PPAR-DELTA AGONIST IN THE TREATMENT OF FATTY ACID OXIDATION DISORDERS (FAOD)” (Reneo Pharmaceuticals, Inc., priority 2019, published 2022)
# Tested on: human retinoid X receptor (hRXR)
# Assay: human retinoid X receptor (hRXR) activity
# Type: cell-based
compound,measurement,value
"Cc1cc(OC/C=C(/c2ccc(F)cc2)c2ccc(C#CCN3CCOCC3)cc2)ccc1OCC(=O)O [Compound 1, (E)-[4-[3-(4-Fluorophenyl)-3-[4-[3-(morpholin-4-yl)propynyl]phenyl]allyloxy]-2-methyl-phenoxy]acetic acid]",hRXR activity,did not show any
